# Calls of active or inactive are those of the source. The rule behind the calls is not given here.
# What was measured:
# SH-SY5Y [1] = experiment: Cytoprotective activity against H2O2-induced toxicity in human SH-SY5Y cells assessed as increase in cell viability at 1 uM preincubated for 24 hrs followed by H2O2 addition measured after 24 hrs by MTT assay relative to PBN; type: functional
# SH-SY5Y [2] = experiment: Cytoprotective activity against H2O2-induced toxicity in human SH-SY5Y cells assessed as increase in cell viability at 1 uM preincubated for 24 hrs followed by H2O2 addition measured after 24 hrs by MTT assay relative to control; type: functional
# SH-SY5Y [3] = experiment: Toxicity in H2O2 stressed human SH-SY5Y cells assessed as effect on total glutathione level at 1 uM preincubated for 24 hrs followed by H2O2 addition measured after 24 hrs by spectrophotometric analysis; type: cell-based
# SH-SY5Y [4] = experiment: Cytoprotective activity against H2O2-induced apoptosis in human SH-SY5Y cells assessed as dead cells at 1 uM preincubated for 24 hrs followed by H2O2 addition measured after 24 hrs by annexin V-FITC/propidium iodide staining-based flow cytometric analysis (reference value: 25.81 +/- 3.57%); type: functional
# SH-SY5Y [5] = experiment: Cytoprotective activity against H2O2-induced apoptosis in human SH-SY5Y cells assessed as early apoptotic cells at 1 uM preincubated for 24 hrs followed by H2O2 addition measured after 24 hrs by annexin V-FITC/propidium iodide staining-based flow cytometric analysis relative to control; type: functional
# SH-SY5Y [6] = experiment: Cytoprotective activity against H2O2-induced oxidative stress in human SH-SY5Y cells at 1 uM preincubated for 24 hrs followed by H2O2 addition measured after 24 hrs by DCFHDA dye-based flow cytometric analysis; type: functional, cell-based
# SH-SY5Y [7] = experiment: Cytoprotective activity against H2O2-induced apoptosis in human SH-SY5Y cells assessed as viable cells at 1 uM preincubated for 24 hrs followed by H2O2 addition measured after 24 hrs by annexin V-FITC/propidium iodide staining-based flow cytometric analysis (reference value: 71.08 +/- 2.34%); type: functional; conditions: read-out: Activity
# SH-SY5Y [8] = experiment: (§1) Cytoprotective activity against H2O2-induced apoptosis in human SH-SY5Y cells assessed as late apoptotic cells at 1 uM preincubated for 24 hrs followed by H2O2 addition measured after 24 hrs by annexin V-FITC/propidium iodide staining-based flow cytometric analysis (reference value: 2.78 +/- 0.53%); type: functional
# SH-SY5Y [9] = experiment: Cytoprotective activity against H2O2 stressed human SH-SY5Y cells assessed as increase in glutathione level at 1 uM preincubated for 24 hrs followed by H2O2 addition measured after 24 hrs by spectrophotometric analysis; type: functional
# SH-SY5Y [10] = experiment: Cytoprotective activity against H2O2-induced apoptosis in human SH-SY5Y cells assessed as dead cells at 100 nM preincubated for 24 hrs followed by H2O2 addition measured after 24 hrs by annexin V-FITC/propidium iodide staining-based flow cytometric analysis (reference value: 25.81 +/- 3.57%); type: functional
# SH-SY5Y [11] = experiment: as §1, with “100 nM” for “1 uM”; type: functional
# SH-SY5Y [12] = experiment: Cytoprotective activity against H2O2-induced apoptosis in human SH-SY5Y cells assessed as early apoptotic cells at 100 nM preincubated for 24 hrs followed by H2O2 addition measured after 24 hrs by annexin V-FITC/propidium iodide staining-based flow cytometric analysis relative to control; type: functional
compound,measurement,setting,value
[O-]/[N+](=C\c1ccncc1)c1ccccc1,Activity,SH-SY5Y [1],42%
same,Activity,SH-SY5Y [2],71%
Cc1ccc(/[N+]([O-])=C/c2ccc3c(c2)OCO3)cc1C,Activity,SH-SY5Y [1],42%
same,Activity,SH-SY5Y [2],71%
[O-]/[N+](=C\c1ccccc1)c1ccc(Cl)cc1,Activity,SH-SY5Y [1],42%
same,Activity,SH-SY5Y [2],71%
[O-]/[N+](=C\c1ccc2c(c1)OCO2)c1ccccc1,Activity,SH-SY5Y [1],42%
same,Activity,SH-SY5Y [2],71%
Cc1ccc(/[N+]([O-])=C/c2ccccc2)cc1C,Activity,SH-SY5Y [3],Non-toxic
same,Activity,SH-SY5Y [1],42%
same,Activity,SH-SY5Y [4],9.13%
same,Activity,SH-SY5Y [5],0%
same,Activity,SH-SY5Y [2],95%
same,Activity,SH-SY5Y [6],Active
same,viability at 1 µM,SH-SY5Y [7],85%
same,Activity,SH-SY5Y [8],1.21%
same,Activity,SH-SY5Y [9],65%
CC(C)(C)/[N+]([O-])=C\c1ccccc1,Activity,SH-SY5Y [4],9.42%
same,Activity,SH-SY5Y [5],0.03%
same,Activity,SH-SY5Y [6],Active
same,Activity,SH-SY5Y [8],2.4%
same,Activity,SH-SY5Y [9],65%
[O-]/[N+](=C\c1ccccc1)c1ccccc1,Activity,SH-SY5Y [3],Non-toxic
same,Activity,SH-SY5Y [1],42%
same,Activity,SH-SY5Y [4],3.78%
same,Activity,SH-SY5Y [5],0%
same,Activity,SH-SY5Y [2],71%
same,Activity,SH-SY5Y [6],Active
same,viability at 1 µM,SH-SY5Y [7],85%
same,Activity,SH-SY5Y [8],1.56%
same,Activity,SH-SY5Y [9],65%
Cc1ccc(/[N+]([O-])=C/c2ccncc2)cc1C,Activity,SH-SY5Y [1],42%
same,Activity,SH-SY5Y [2],71%
[O-]/[N+](=C\c1ccncc1)c1ccc(Cl)cc1,Activity,SH-SY5Y [1],42%
same,Activity,SH-SY5Y [2],71%
[O-]/[N+](=C\c1ccc2c(c1)OCO2)c1ccc(Cl)cc1,Activity,SH-SY5Y [1],42%
same,Activity,SH-SY5Y [2],71%
CN[C@@H]1C[C@H]2O[C@@](C)([C@@H]1OC)n1c3ccccc3c3c4c(c5c6ccccc6n2c5c31)C(=O)NC4 [STAUROSPORINE],Activity,SH-SY5Y [10],6.19%
same,Activity,SH-SY5Y [11],14.49%
same,Activity,SH-SY5Y [12],2.63%
